According to patent publication US20250235404A1, “PEG-LIPIDS AND LIPID NANOPARTICLES” (CAPSTAN THERAPEUTICS, INC., priority 2022, published 2025):

What was measured:
[1] = system: HEK293F cells; experiment: Transfection of HEK293F cells with mCherry mRNA encapsulated in LNP (flow cytometry, Aqua Live/Dead); type: cell-based, human; details: LNP comprising the labelled PEG-lipid; for expression level of mCherry (gMFI) compared with the benchmark LNP (DMG-PEG2000) / transfection at the lower doses: 24 hours; for expression level of mCherry (gMFI) compared with the benchmark LNP (DMG-PEG2000): FIG. 14C; for transfection at the lower doses: lower LNP doses
Procedure: The ability of the LNP formed in the preceding Example to transfect HEK293F cells, a human embryonic kidney cell-derived cell line, with the mCherry mRNA was assessed. Viral Production Cells (Gibco Catalog number: A35347), a derivative of the HEK 293F cell line adapted to a chemically-defined, serum-free and protein-free medium (LV-MAX™ Production Medium; Gibco Catalog number: A3583401) were grown in suspension, sedimented, resuspended at about 1×10^6 cells/mL, and 200 μL distributed to the wells of a 96-well U-bottom plate. Frozen LNP were thawed and diluted to 100 μg mRNA/mL with sterile water for injection. An appropriate volume of LNP was added to provide 0, 0.3, 0.6, or 2 μg RNA per well in duplicate and mixed by re-pipetting. The cells were then incubated for 1 hour at 37° C. in a CO2 incubator, washed three times with phosphate buffered saline, resuspended in 400 μL of medium in a deep-well 96-well plate, and incubated at 37° C. in a CO2 incubator on an orbital shaker at 900 RPM.
Twenty-four hours after addition of the LNP to the cells they were stained with Aqua Live/Dead (Thermo: catalog L34965) to assess cell viability. Transfection rate and expression level in the transfected cells was assessed by flow cytometry based on mCherry fluorescence.

[2] = Physical-chemical properties of the LNP / tLNP: hydrodynamic diameter and PDI by dynamic light scattering; type: physicochemical; details: for PDI* (polydispersity index) / Hydrodynamic diameter (nm): LNP whose PEG-lipid is the labelled compound, mCherry mRNA, N/P 6; for PDI* (polydispersity index): 50:10:38.5:1.5 mol/mol; for Hydrodynamic diameter (nm): ionizable cationic lipid/DSPC/cholesterol/PEG-lipid 50:10:38.5:1.5 mol/mol, pH 7.4 Tris buffer, 25° C.; for formation of LNP encapsulating mRNA: PEG-lipid at 1.5 mol % in LNP with mCherry mRNA
Procedure: The ability to incorporate various of the disclosed PEG-lipids into LNP encapsulating mRNA was assessed using mRNA encoding the fluorescent marker mCherry.
(§1) The mRNA was encapsulated in LNP using a self-assembly process in which an aqueous solution of mRNA at pH=3.5 is rapidly mixed with a solution of lipids dissolved in ethanol, then followed by stepwise phosphate and Tris buffer dilution and tangential flow filtration (TFF) purification. LNP composition in this study was: an ionizable cationic lipid of Formula 1a as shown below/distearoylphosphatidylcholine/cholesterol/PEG-lipid (50:10:38.5:1.5 mol/mol) and were encapsulated at an N/P ratio (the ratio of positively-chargeable lipid amine (N=nitrogen) groups to negatively-charged nucleic acid phosphate (P) groups) at 6. LNPs were frozen at −80° C. LNP were made in which the PEG-lipid was DMG-PEG2000, as a benchmark, or one of Compounds VI-7, VI-8, B-46, or B-47. The diameter of the nanoparticles was measured by dynamic light scattering using a Zetasizer Nano ZS (Malvern Instruments Ltd., Malvern, UK) instrument. Size measurement was carried out in pH 7.4 Tris buffer at 25° C. in relevant disposable capillary cells. A non-invasive back scatter system (NIBS) with a scattering angle of 173° was used for size measurements.
CleanCap® mCherry 5-methoxyuridine (5moU) mRNA (L-7203) was purchased from TriLink. mRNA was encapsulated in LNP using a self-assembly process in which an aqueous solution of mRNA at pH=3.5 is rapidly mixed with a solution of lipids dissolved in ethanol, then followed by stepwise phosphate and Tris buffer dilution and TFF purification. LNP composition in this study was: an ionizable cationic lipid as shown in Example 42/distearoylphosphatidylcholine/cholesterol/DMG-PEG 2000/functionalized PEG-lipid (50:10:38.5:1.4:0.1 mol/mol) and were encapsulated at an N/P ratio (the ratio of positively-chargeable […] amine (N=nitrogen) groups to negatively-charged nucleic acid phosphate (P) groups) at 6. The hydrodynamic diameter of the nanoparticles was measured by dynamic light scattering using a Zetasizer Nano ZS (Malvern Instruments Ltd., Malvern, UK) instrument.
The particle size (hydrodynamic diameter) and polydispersity index of the targeted lipid nanoparticles were determined using dynamic light scattering (DLS) on a Malvern Zetasizer Nano ZS (Malvern Instruments, Worcestershire, UK). Size measurement was carried out in pH 7.4 Tris buffer at 25° C. in relevant disposable capillary cells. A non-invasive back scatter system (NIBS) with a scattering angle of 173° was used for size measurements.

[3] = Encapsulation efficiency of mRNA in LNP / tLNP (RiboGreen RNA assay); type: physicochemical; details: LNP whose PEG-lipid is the labelled compound; 50:10:38.5:1.5 mol/mol, mCherry mRNA, N/P 6
Description: as §1
mRNA content was determined using a Quant-iT™ RiboGreen RNA assay kit (Invitrogen™). Encapsulation efficiency was calculated by determining the unencapsulated mRNA content by measuring the fluorescence intensity (Fi) upon the addition of RiboGreen reagent to the LNP and comparing this value to the total fluorescence intensity (Ft) of the RNA content that is obtained upon lysis of the LNPs by 1% Triton X-100, where % encapsulation=(Ft−Fi)/Ft×100).

Compound: CCCCCCCCCCCCCCCCCC(=O)OCC(COC(=O)CCCCCCCCCCCCCCCCC)CC(=O)OCCOCCOCCOCCOCCOCCOCCOCCOCCOCCOCCOCCOCCOCCOCCOCCOCCOCCOCCOCCOCCOCCOCCOCCOCCOCCOCCOCCOCCOCCOCCOCCOCCOCCOCCOCCOCCOCCOCCOCCOCCOCCOCCOCCOCCOCc1ccc(OC)cc1 [Compound B-46]
- expression level of mCherry (gMFI) compared with the benchmark LNP (DMG-PEG2000) [1]: substantially higher expression levels
- transfection of live cells (transfection rate) ([1]; highest LNP dose tested, 24 hours after addition, mCherry fluorescence, FIG. 14B): ~90%
- transfection at the lower doses ([1]; FIG. 14B): substantial levels of transfection
- PDI* (polydispersity index) [2]: 0.04
- Hydrodynamic diameter (nm) [2]: 88 nm
- formation of LNP encapsulating mRNA [2]: formed LNP
- Encapsulation Efficiency (%) [3]: 85%

Compound: CCCCCCCC(CCCCCCC)CCC(=O)OCC(COC(=O)CCC(CCCCCCC)CCCCCCC)CC(=O)OCCOCCOCCOCCOCCOCCOCCOCCOCCOCCOCCOCCOCCOCCOCCOCCOCCOCCOCCOCCOCCOCCOCCOCCOCCOCCOCCOCCOCCOCCOCCOCCOCCOCCOCCOCCOCCOCCOCCOCCOCCOCCOCCOCCOCCOCc1ccc(OC)cc1 [Compound B-47]
- expression level of mCherry (gMFI) compared with the benchmark LNP (DMG-PEG2000) [1]: performed comparably
- transfection at the lower doses ([1]; FIG. 14B): minimal transfection
- PDI* (polydispersity index) [2]: 0.12
- Hydrodynamic diameter (nm) [2]: 98 nm
- formation of LNP encapsulating mRNA [2]: formed LNP
- Encapsulation Efficiency (%) [3]: 68%

Compound: 1,2-dimyristoyl-glycero-3-methoxypolyethylene glycol-2000 [DMG-PEG2000, reference compound]
- PDI* (polydispersity index) [2]: 0.03
- Hydrodynamic diameter (nm) [2]: 82 nm
- Encapsulation Efficiency (%) [3]: 96%
